Our source for the EC50 values is ChEMBL document CHEMBL1138685, “Molecular recognition in purinergic receptors. 2. Diastereoselectivity of the h-P2Y1-receptor” (J Med Chem, 2004).

The experiment concerns the target P2Y purinoceptor 1 (Homo sapiens) (UniProt P47900). Description: Concenthumanion required for calcium mobilization at human purinergic 2Y1 receptor expressed in HEK 293 cells. For orientation: A change in cytosolic calcium serves as a functional read-out for many receptors and channels.

Sequence of P2Y purinoceptor 1 (Homo sapiens) (P47900 whole entry, looked up): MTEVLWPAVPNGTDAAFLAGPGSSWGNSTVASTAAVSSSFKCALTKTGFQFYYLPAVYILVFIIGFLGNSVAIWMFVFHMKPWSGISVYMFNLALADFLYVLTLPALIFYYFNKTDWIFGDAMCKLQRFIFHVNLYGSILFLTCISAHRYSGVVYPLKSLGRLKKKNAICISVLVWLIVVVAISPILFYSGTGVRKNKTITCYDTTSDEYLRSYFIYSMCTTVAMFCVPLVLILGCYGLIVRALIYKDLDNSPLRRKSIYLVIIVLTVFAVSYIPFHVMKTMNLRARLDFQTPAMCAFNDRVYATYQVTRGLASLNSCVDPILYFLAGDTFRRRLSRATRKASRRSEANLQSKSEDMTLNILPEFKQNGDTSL

Broadly, the EC50 is the concentration giving half of the maximal effect. In the case of `Nc1ncnc2c1ncn2C1O[C@H](CO[P@@](O)(=S)OP(=O)(O)OP(=O)(O)O)[C@@H](O)[C@H]1O` (stereo partly specified), the EC50 came out at 0.075 µM.

Take `CSc1nc(N)c2ncn(C3O[C@H](CO[P@@](O)(=S)OP(=O)(O)OP(=O)(O)O)[C@@H](O)[C@H]3O)c2n1` (stereo partly specified): the EC50 is 0.02 µM. With `Nc1ncnc2c1ncn2C1O[C@H](CO[P@](O)(=S)OP(=O)(O)OP(=O)(O)O)[C@@H](O)[C@H]1O` (stereo partly specified), the EC50 was found to be 0.0094 µM. Turning to `CSc1nc(N)c2ncn(C3O[C@H](CO[P@](O)(=S)OP(=O)(O)OP(=O)(O)O)[C@@H](O)[C@H]3O)c2n1` (stereo partly specified), the half-maximal effective concentration (EC50) is 0.001 µM. With `BP(=O)(OC[C@H]1O[C@@H](n2cnc3c(N)nc(SC)nc32)[C@H](O)[C@@H]1O)OP(=O)(O)OP(=O)(O)O` (stereo partly specified) the figure was 0.053 µM. For the compound `CSc1nc(N)c2ncn([C@@H]3O[C@H](COP(=O)(O)OP(=O)(O)OP(=O)(O)O)[C@@H](O)[C@H]3O)c2n1`, the 50% effective concentration (EC50) was determined as 0.001 µM.
